The target of one data set is T1, UGT1A1 (Homo sapiens, UniProt P22309).
T1 construct: […]; tissue Corning Life Sciences
T1 sequence (P22309 26-533): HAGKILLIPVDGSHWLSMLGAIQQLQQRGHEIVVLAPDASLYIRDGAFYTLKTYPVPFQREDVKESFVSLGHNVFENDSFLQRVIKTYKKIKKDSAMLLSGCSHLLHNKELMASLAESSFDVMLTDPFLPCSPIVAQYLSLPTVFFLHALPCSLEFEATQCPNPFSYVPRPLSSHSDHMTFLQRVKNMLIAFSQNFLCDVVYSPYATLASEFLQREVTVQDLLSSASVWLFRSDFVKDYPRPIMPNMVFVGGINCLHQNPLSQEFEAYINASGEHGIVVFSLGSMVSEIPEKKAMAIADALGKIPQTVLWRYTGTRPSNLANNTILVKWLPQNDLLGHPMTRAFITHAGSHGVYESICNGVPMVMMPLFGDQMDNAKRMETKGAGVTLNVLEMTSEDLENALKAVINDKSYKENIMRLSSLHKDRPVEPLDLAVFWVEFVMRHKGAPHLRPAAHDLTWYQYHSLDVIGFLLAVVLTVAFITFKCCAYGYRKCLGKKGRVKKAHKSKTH
The data set is described as follows: biochemical. The class given is in vitro ADME. The text has this:
(§1) 12.5 (Systat Software, Inc.; San Jose, CA, USA). […] 1.1 (Systat Software, Inc.).

A further data set concerns the target OATP1B3 (Homo sapiens, UniProt Q9NPD5).
The target in the next data set is T2, OCT2 (Homo sapiens, UniProt O15244).
T2 construct: host or cells: HEK293 (transient overexpression)
T2 sequence (O15244 1-555): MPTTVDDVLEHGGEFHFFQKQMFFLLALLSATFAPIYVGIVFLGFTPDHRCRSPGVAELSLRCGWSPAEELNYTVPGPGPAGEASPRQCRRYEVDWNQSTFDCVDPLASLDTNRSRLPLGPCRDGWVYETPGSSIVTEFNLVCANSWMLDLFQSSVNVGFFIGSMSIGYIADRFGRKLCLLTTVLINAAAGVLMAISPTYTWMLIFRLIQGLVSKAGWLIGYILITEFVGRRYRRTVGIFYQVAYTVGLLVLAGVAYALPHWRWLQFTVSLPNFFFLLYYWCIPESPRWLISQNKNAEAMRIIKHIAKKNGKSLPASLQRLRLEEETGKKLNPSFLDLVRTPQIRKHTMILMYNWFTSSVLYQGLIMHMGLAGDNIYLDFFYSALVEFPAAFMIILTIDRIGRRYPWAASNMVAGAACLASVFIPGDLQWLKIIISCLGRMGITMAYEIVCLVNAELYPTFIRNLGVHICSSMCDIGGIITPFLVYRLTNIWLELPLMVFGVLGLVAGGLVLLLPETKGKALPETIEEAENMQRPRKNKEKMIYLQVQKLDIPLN
The data set can be described thus: Uptake of [3-H]methyl-4-phenylpyridinium in HEK293-OCT2 cells. The class given is in vitro ADME. Here is the method:
To examine the effects of APINACA and typical inhibitors on transporter activity, the uptake of a probe substrate into HEK293 cells overexpressing the respective solute carrier transporters was measured in the presence of APINACA (final concentrations of 0–250 μM) or typical inhibitors for 5 min. The concentrations and probe substrates were selected as follows: 0.1 μM [3-H]MPP^+ (for OCT1 and OCT2), 0.1 μM [3-H]PAH (for OAT1), 0.1 μM [3-H]ES (for OAT3 and OATP1B1), and 0.1 μM [3-H]EG (for OATP1B3).
as §1

The target in another data set is CYP2B6 (Homo sapiens, UniProt P20813). The data set is described as follows: Inhibition of CYP2B6-mediated bupropion hydroxylase in ultrapooled human liver microsomes. The data set is classed as in vitro ADME. Here is the method: After 3 min of preincubation at 37 °C, the reaction mixtures were incubated with the addition of NADPH in a shaking water bath for 15 min at 37 °C. The reaction was stopped by adding 100 μL of ice cold d9-1′-hydroxybufuralol (internal standard) in methanol.
Next, the reaction mixtures were incubated with a seven-CYP probe substrate cocktail or bupropion for 15 min at 37 °C.
The LC-MS/MS system was comprised of an Agilent 6495 triple quadrupole mass spectrometer coupled with an Agilent 1290 Infinity system (Agilent Technologies, CA, USA). The column and autosampler temperatures were 40 °C and 4 °C, respectively.
The data were processed using Mass Hunter software (Agilent Technologies).
as §1
A general note: Liver microsomes are vesicles of endoplasmic reticulum, rich in cytochrome P450 enzymes.

A further data set concerns the target T3, BCRP (Homo sapiens, UniProt Q9UNQ0).
T3 sequence (Q9UNQ0 1-655): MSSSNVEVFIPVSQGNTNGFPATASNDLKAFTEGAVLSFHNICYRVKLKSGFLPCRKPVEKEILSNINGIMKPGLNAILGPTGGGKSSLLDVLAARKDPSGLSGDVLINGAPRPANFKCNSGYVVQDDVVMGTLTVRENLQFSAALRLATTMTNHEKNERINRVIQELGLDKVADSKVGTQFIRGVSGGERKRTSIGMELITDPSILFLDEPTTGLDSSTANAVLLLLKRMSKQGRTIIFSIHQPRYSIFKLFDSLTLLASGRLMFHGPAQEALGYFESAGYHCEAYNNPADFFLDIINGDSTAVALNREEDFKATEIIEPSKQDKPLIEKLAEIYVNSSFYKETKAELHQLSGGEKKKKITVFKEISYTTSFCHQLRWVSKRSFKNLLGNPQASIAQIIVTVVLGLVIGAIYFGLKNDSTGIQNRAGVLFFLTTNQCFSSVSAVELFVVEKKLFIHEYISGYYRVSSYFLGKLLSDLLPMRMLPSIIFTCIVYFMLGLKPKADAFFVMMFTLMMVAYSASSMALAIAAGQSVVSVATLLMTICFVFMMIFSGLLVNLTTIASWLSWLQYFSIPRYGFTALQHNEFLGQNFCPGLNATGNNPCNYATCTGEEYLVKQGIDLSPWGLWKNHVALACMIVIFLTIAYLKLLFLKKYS
The data set is described as follows: B to A transport of [3-H]estrone-3-sulfate in LLC-PK1-BCRP cells. The class given is in vitro ADME. Particulars: human, LLC-PK1-BCRP cell monolayers on filter membranes, probe [3H]estrone-3-sulfate (0.1 μM), B to A transport.

pIC50: −log10 of the molar value. Like-named read-outs stand apart in the source and are kept apart here.

CYP2B6, sequence (P20813 whole entry): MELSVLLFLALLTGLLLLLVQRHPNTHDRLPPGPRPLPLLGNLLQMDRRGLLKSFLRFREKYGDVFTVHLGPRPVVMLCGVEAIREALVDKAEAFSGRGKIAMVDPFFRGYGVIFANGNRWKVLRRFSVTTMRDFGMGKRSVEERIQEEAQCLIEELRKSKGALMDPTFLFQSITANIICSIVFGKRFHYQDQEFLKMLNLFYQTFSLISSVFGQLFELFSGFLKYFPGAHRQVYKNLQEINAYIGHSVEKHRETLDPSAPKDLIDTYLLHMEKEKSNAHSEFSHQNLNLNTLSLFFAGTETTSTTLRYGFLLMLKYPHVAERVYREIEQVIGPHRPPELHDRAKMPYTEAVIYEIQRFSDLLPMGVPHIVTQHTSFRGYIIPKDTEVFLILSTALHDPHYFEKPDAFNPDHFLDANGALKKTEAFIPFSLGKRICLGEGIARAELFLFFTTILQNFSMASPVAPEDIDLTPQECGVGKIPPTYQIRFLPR
OATP1B3, sequence (Q9NPD5 whole entry): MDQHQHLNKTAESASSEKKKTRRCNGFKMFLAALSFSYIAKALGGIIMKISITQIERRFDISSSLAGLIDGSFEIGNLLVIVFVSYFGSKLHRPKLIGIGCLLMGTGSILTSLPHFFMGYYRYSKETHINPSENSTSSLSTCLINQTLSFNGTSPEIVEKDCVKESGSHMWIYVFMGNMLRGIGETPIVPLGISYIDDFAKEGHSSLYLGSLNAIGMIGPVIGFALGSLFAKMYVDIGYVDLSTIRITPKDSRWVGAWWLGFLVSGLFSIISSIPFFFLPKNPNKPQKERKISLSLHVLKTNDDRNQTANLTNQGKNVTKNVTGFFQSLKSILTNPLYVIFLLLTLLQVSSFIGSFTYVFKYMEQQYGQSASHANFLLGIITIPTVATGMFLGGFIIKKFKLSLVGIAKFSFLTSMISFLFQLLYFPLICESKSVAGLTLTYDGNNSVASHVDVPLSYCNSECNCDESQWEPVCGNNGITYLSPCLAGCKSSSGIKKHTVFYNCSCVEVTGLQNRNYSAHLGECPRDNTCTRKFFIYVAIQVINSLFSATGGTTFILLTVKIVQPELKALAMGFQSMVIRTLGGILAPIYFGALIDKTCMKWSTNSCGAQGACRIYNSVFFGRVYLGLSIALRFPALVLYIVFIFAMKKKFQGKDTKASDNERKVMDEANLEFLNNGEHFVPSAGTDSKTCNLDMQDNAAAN

As usually defined, the pIC50 is the negative decadic logarithm of the IC50, by convention in mol/L. The term IC50 denotes the midpoint of a concentration-inhibition curve. Consider `CCCCCn1nc(C(=O)NC23CC4CC(CC(C4)C2)C3)c2ccccc21` [APINACA, N-(1-adamantyl)-1-pentyl-1H-indazole-3-carboxamide], for which the pIC50 is less than 4.00 on UGT1A1; less than 4.00 at UGT1A1 (read-out: IC50 UGT1A1 SN-38 glucuronidation, with 30-min preincubation, pooled human liver microsomes, 30-min preincubation with UDPGA (○)); less than 3.60 at OATP1B3; less than 3.60 on OCT2; less than 4.00 against CYP2B6; less than 4.00 on BCRP. Moreover, the IC50 on CYP2B6 (read-out: IC50 (μM) With Preincubation, CYP2B6 bupropion hydroxylase, ultrapooled human liver microsomes, 30-min preincubation with NADPH) is greater than 100 µM.

These data come from publication PMC6720883, “In Vitro Inhibitory Effects of APINACA on Human Major Cytochrome P450, UDP-Glucuronosyltransferase Enzymes, and Drug Transporters” (Molecules, 2019).
